From ChEMBL document CHEMBL5634085, “Design, synthesis and antitrypanosomatid activity of 2-nitroimidazole-3,5-disubstituted isoxazole compounds based on benznidazole” (Eur J Med Chem, 2023)
Activity calls are given as the source filed them. The calls are words filed in the database; no cut-off is given here.

Columns and labels:
[1] = Selectivity index, ratio of CC50 for monkey LLC-MK2 cells to IC50 for Trypanosoma cruzi Tulahuen lacZ expressing beta-galactosidase amastigotes infected monkey LLC-MK2 cells; format: toxicity; details: read-out: Ratio CC50/IC50
Leishmania amazonensis [2] = experiment: Antileishmanial activity against Leishmania amazonensis IFLA/BR/1967/PH8 amastigotes infected in mouse peritoneal macrophage assessed as inhibition of parasite growth pre-infected in cells for 4 hrs followed by compound addition and measured after 24 hrs by Giemsa staining based analysis; format: functional, organism-based; details: IFLA/BR/1967/PH8, Peritoneal macrophage
Trypanosoma cruzi [3] = experiment: Antitrypanosomal activity against Trypanosoma cruzi Tulahuen lacZ expressing beta-galactosidase amastigotes infected in monkey LLC-MK2 cells assessed as inhibition of amastigotes pre-infected in cells for 48 hrs followed by compound addition and measured after 72 hrs by CPRG reagent based absorbance analysis; format: functional, organism-based
[4] = Cytotoxicity against monkey LLC-MK2 cells incubated for 72 hrs by MTT assay; format: toxicity, cell-based, Macaca mulatta; details: rhesus monkey
[5] = Selectivity index, ratio of CC50 for cytotoxicity against monkey LLC-MK2 cells to IC50 for antileishmanial activity against Leishmania amazonensis IFLA/BR/1967/PH8 amastigotes infected in mouse peritoneal macrophage; format: toxicity, cell-based; details: read-out: Ratio CC50/IC50
Leishmania amazonensis [6] = experiment: Potency index, ratio of pentamidine IC50 to test compound IC50 for antileishmanial activity against Leishmania amazonensis IFLA/BR/1967/PH8 amastigotes infected in mouse peritoneal macrophage assessed as inhibition of parasite growth pre-infected in cells for 4 hrs followed by compound addition and measured after 24 hrs by Giemsa staining based analysis; format: functional, Peritoneal macrophage cell
Trypanosoma cruzi [7] = experiment: Binding affinity to Trypanosoma cruzi type I nitro reductase at 10 uM incubated for 5 mins in the presence of NADH by microplate reader analysis
Trypanosoma cruzi [8] = experiment: Binding affinity to Trypanosoma cruzi type I nitro reductase at 25 uM incubated for 5 mins in the presence of NADH by microplate reader analysis
Trypanosoma cruzi [9] = experiment: Effect on infection-mediated heart weight in Trypanosoma cruzi Y strain trypomastigotes infected in BALB/c mouse model at 25 mg/kg/day, po administered for consecutive 10 days; format: functional, organism-based; details: time 10.0 day
Trypanosoma cruzi [10] = experiment: Antitrypanosomal activity against Trypanosoma cruzi Y strain trypomastigotes infection induced hepatosplenomegaly BALB/c male mouse model assessed as change in infection-mediated liver weight at 25 mg/kg/day, po administrated for consecutive 10 days; format: functional, organism-based; details: time 10.0 day
Trypanosoma cruzi [11] = experiment: Potency index, ratio of benznidazole IC50 to test compound IC50 for antitrypanosomal activity against Trypanosoma cruzi Tulahuen lacZ expressing beta-galactosidase amastigotes infected in monkey LLC-MK2 cells assessed as inhibition of amastigotes pre-infected in cells for 48 hrs followed by compound addition and measured after 72 hrs by CPRG reagent based absorbance analysis; format: functional
Trypanosoma cruzi [12] = experiment: Antitrypanosomal activity against Trypanosoma cruzi Y strain trypomastigotes infection induced hepatosplenomegaly BALB/c male mouse model assessed as change in infection-mediated spleen weight at 25 mg/kg/day, po administrated for consecutive 10 days; format: functional, organism-based; details: time 10.0 day
Trypanosoma cruzi [13] = experiment: Antitrypanosomal activity against Trypanosoma cruzi Y trypomastigotes infected in BALB/c mouse model assessed as reduction of parasitemia level at 25 mg/kg/day, po administered via gavage for consecutive 10 days and measured on day 5,7,9 and 11; format: functional, organism-based; details: time 11.0 day
[14] = Toxicity in BALB/c mouse infected with Trypanosoma cruzi Y trypomastigotes assessed as body weight loss at 25 mg/kg/day, po administrated via gavage for consecutive 10 days; format: organism-based; details: in vivo, 240 h, time 10 day
[15] = Toxicity in BALB/c mouse infected with Trypanosoma cruzi Y trypomastigotes assessed as animal survival at 25 mg/kg/day, po administrated via gavage for consecutive 10 days; format: organism-based; details: in vivo, 240 h, time 10 day
[16] = Toxicity in BALB/c mouse infected with Trypanosoma cruzi Y trypomastigotes assessed as body weight gain at 25 mg/kg/day, po administrated via gavage for consecutive 10 days; format: organism-based; details: in vivo, 240 h, time 10 day
[17] = Toxicity in BALB/c mouse infected with Trypanosoma cruzi Y trypomastigotes assessed as animal survival at 25 mg/kg/day, po administrated via gavage for consecutive 10 days relative to control; format: organism-based; details: in vivo, time 10 day
Trypanosoma cruzi [18] = experiment: Antitrypanosomal activity against Trypanosoma cruzi Y trypomastigotes infected in BALB/c mouse model assessed as reduction of parasitemia level at 25 mg/kg/day, po administered via gavage observed on 7 day of post infection relative to control; format: functional; design: scale not given: the % may be the effect or the level left
Trypanosoma cruzi [19] = experiment: Antitrypanosomal activity against Trypanosoma cruzi Y trypomastigotes infected in BALB/c mouse model assessed as reduction of parasitemia level at 25 mg/kg/day, po administered via gavage administrated for consecutive 10 days and measured on day 11; format: functional, organism-based; details: time 11.0 day
Trypanosoma cruzi [20] = experiment: Antitrypanosomal activity against Trypanosoma cruzi Y trypomastigotes infected in BALB/c mouse model assessed as reduction of parasite load in cardiac tissue by measuring reduction in DNA copy number at 25 mg/kg/day, po administered via gavage observed on 11 day of post infection by qPCR analysis relative to control; format: functional; design: scale not given: the % may be the effect or the level left

Row | SMILES | selectivity ratio [1] | IC50 (Leishmania amazonensis [2]) [µM] | IC50 (Trypanosoma cruzi [3]) [µM] | CC50 at 72 h [4] [µM] | selectivity ratio [5] | Ratio IC50 (Leishmania amazonensis [6]) | Kobs (Trypanosoma cruzi [7]) [s⁻¹] | Kobs (Trypanosoma cruzi [8]) [s⁻¹] | Activity (Trypanosoma cruzi [9]) | Activity (Trypanosoma cruzi [10]) | Ratio IC50 (Trypanosoma cruzi [11]) | Activity (Trypanosoma cruzi [12]) | Activity (Trypanosoma cruzi [13]) | Activity [14] | Activity [15] | Activity [16] | survival at 240 h [17] [%] | Activity (Trypanosoma cruzi [18]) [%] | Activity (Trypanosoma cruzi [19]) | Activity (Trypanosoma cruzi [20]) [%]
1 | CN1CCCN(c2ccc(-c3cc(Cn4ccnc4[N+](=O)[O-])on3)cc2)CC1 | > 32 | 2.3 | 1.6 | > 50 | > 21.3 | 7.1 | – | – | – | – | – | – | – | – | – | – | – | – | – | –
2 | O=[N+]([O-])c1nccn1Cc1cc(-c2ccc3c(c2)OCO3)no1 | > 13.8 | 8.3 | 3.6 | > 50 | > 6 | 2 | – | – | – | – | – | – | – | – | – | – | – | – | – | –
3 | CN(C)c1ccc(-c2cc(Cn3ccnc3[N+](=O)[O-])on2)cc1 | > 21.2 | 33.4 | 2.3 | > 50 | > 1.5 | – | 0.24 | 0.31 | – | – | – | – | – | – | – | – | – | – | – | –
4 | COc1ccc(-c2cc(Cn3ccnc3[N+](=O)[O-])on2)cc1OC | > 200 | 19.6 | 0.2 | > 50 | > 2.5 | – | 0.57 | 0.82 | inactive | Active | 15 | Active | inactive | Toxic | Toxic | – | – | – | – | –
5 | O=[N+]([O-])c1nccn1Cc1cc(-c2ccc(N3CCNCC3)cc2)no1 | > 10.5 | 2.5 | 4.7 | > 50 | > 19.8 | 6.6 | – | – | – | – | – | – | – | – | – | – | – | – | – | –
6 | O=[N+]([O-])c1ccc(-c2cc(Cn3ccnc3[N+](=O)[O-])on2)o1 | > 51 | – | 0.9 | > 50 | – | – | 0.75 | 1.27 | – | – | 5.4 | – | – | – | – | – | – | – | – | –
7 | CC(C)N1CCN(c2ccc(-c3cc(Cn4ccnc4[N+](=O)[O-])on3)cc2)CC1 | > 7.6 | 4.7 | 6.6 | > 50 | > 10.6 | 3.5 | – | – | – | – | – | – | – | – | – | – | – | – | – | –
8 | Cc1ccc(-c2cc(Cn3ccnc3[N+](=O)[O-])on2)cc1[N+](=O)[O-] | > 1.5 | 3.3 | 33.6 | > 50 | > 15.3 | 5.1 | – | – | – | – | – | – | – | – | – | – | – | – | – | –
9 | COc1cc(OC)c(Cl)c(-c2cc(Cn3ccnc3[N+](=O)[O-])on2)c1 | > 4.2 | 2.2 | 12 | > 50 | > 22.6 | 7.6 | – | – | – | – | – | – | – | – | – | – | – | – | – | –
10 | O=[N+]([O-])c1nccn1Cc1cc(-c2ccc(N3CCN(CCO)CC3)cc2)no1 | > 6.7 | 5.6 | 7.5 | > 50 | > 8.8 | 2.9 | – | – | – | – | – | – | – | – | – | – | – | – | – | –
11 | O=[N+]([O-])c1nccn1Cc1cc(-c2ccc(O)cc2)no1 | > 87.7 | 18.7 | 0.6 | > 50 | > 2.7 | – | 0.47 | 0.68 | inactive | Active | 12 | Active | inactive | – | – | Non-Toxic | 100 | – | – | –
12 | CN1CCN(c2ccc(-c3cc(Cn4ccnc4[N+](=O)[O-])on3)cc2)CC1 | > 125 | 15.6 | 0.4 | > 50 | > 3.2 | – | 0.21 | 0.38 | inactive | Active | 10 | Active | inactive | – | – | Non-Toxic | 100 | – | – | –
13 | COc1ccc(-c2cc(Cn3ccnc3[N+](=O)[O-])on2)cc1[N+](=O)[O-] | > 2.1 | 15.2 | 24.2 | > 50 | > 3.3 | – | 0.54 | 0.57 | – | – | – | – | – | – | – | – | – | – | – | –
14 | O=[N+]([O-])c1nccn1Cc1cc(-c2ccc(C(F)(F)F)cc2)no1 | 0.8 | 18 | 23 | 18.9 | 1 | – | – | – | – | – | – | – | – | – | – | – | – | – | – | –
15 | CCN1CCN(c2ccc(-c3cc(Cn4ccnc4[N+](=O)[O-])on3)cc2)CC1 | > 30.8 | 5.5 | 1.6 | > 50 | > 9 | – | 0.23 | 0.48 | inactive | Active | – | Active | – | – | – | Non-Toxic | 100 | 77 | inactive | 73
16 | O=[N+]([O-])c1nccn1Cc1cc(-c2ccc(N3CCCCC3)cc2)no1 | > 6.7 | 31.1 | 7.5 | > 50 | > 1.6 | – | – | – | – | – | – | – | – | – | – | – | – | – | – | –
